In ChEMBL document CHEMBL4118154, “Discovery of evocalcet, a next-generation calcium-sensing receptor agonist for the treatment of hyperparathyroidism” (Bioorg Med Chem Lett, 2018):

Key:
[1] = target: T1, Extracellular calcium-sensing receptor (Rattus norvegicus, UniProt P48442); assay: Agonist activity at CaSR in rat parathyroid cells assessed as inhibition of PTH (1 to 84 residues) production in presence of Cacl2 by ELISA; assay type: functional, cell-based
T1 sequence (P48442 whole entry): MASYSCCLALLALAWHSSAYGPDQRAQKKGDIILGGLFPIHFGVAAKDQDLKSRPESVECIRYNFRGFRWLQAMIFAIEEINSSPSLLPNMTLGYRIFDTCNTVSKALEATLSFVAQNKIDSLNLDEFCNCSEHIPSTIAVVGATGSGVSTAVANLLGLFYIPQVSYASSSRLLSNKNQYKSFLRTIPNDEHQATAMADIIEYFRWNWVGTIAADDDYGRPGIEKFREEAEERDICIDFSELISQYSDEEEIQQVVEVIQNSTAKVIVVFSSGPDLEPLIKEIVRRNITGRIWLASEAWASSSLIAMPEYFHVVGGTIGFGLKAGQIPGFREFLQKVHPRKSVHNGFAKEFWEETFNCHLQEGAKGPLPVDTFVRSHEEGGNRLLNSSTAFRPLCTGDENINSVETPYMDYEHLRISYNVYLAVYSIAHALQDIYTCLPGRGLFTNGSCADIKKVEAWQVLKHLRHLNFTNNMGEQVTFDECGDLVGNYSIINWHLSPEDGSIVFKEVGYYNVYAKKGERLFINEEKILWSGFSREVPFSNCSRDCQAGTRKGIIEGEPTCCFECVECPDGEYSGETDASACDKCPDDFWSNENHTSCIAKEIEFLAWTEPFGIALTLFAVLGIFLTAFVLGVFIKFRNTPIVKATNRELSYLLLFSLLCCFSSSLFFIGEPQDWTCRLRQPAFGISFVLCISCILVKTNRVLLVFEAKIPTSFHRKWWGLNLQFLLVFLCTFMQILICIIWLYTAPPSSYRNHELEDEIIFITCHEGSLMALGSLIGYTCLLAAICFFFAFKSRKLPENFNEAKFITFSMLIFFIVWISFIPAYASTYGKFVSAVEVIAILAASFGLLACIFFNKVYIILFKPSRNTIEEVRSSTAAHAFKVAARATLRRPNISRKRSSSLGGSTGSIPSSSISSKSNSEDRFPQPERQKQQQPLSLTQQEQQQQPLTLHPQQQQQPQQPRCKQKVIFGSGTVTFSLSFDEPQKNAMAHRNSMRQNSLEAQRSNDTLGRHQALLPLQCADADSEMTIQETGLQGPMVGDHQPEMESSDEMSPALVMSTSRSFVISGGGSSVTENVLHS

CYP2D6 = CYP2D6 (Homo sapiens, UniProt P10635); assay: Inhibition of CYP2D6 (unknown origin); assay type: ADME
Sequence of CYP2D6 (P10635 whole entry): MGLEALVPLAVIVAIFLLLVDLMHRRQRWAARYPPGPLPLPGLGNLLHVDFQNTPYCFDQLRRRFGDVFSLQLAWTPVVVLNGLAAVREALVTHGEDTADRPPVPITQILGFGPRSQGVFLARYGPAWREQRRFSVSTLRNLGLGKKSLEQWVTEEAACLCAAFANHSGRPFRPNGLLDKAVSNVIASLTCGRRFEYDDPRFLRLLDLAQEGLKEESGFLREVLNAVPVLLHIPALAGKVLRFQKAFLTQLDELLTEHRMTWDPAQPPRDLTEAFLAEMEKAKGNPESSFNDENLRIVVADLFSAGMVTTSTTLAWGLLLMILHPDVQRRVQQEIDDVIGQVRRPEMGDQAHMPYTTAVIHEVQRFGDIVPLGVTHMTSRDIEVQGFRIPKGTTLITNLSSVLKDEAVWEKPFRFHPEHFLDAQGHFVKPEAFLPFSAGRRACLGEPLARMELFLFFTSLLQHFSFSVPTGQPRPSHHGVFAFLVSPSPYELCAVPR

[2] = Oral bioavailability in rat at 1 mg/kg; assay type: ADME, organism-based; details: in vivo
[3] = Tmax in monkey at 1 mg/kg, po; assay type: ADME, organism-based, Macaca mulatta; details: rhesus monkey, in vivo
[4] = AUC (0 to infinity) in monkey at 1 mg/kg, po; assay type: ADME, organism-based, Macaca mulatta; parameters: dose 1 mg/kg, time infinity, route oral; details: rhesus monkey, in vivo
[5] = AUC (0 to infinity) in monkey at 0.3 mg/kg, iv; assay type: ADME, organism-based, Macaca mulatta; parameters: dose 0.3 mg/kg, time infinity, route intravenous; details: rhesus monkey, in vivo
[6] = Half life in monkey at 0.3 mg/kg, iv; assay type: ADME, organism-based, Macaca mulatta; details: rhesus monkey, in vivo
[7] = Total clearance in monkey at 0.3 mg/kg, iv; assay type: ADME, organism-based, Macaca mulatta; details: rhesus monkey, in vivo
[8] = Volume of distribution at steady state in monkey at 0.3 mg/kg, iv; assay type: ADME, organism-based, Macaca mulatta; details: rhesus monkey, in vivo, read-out: Vdss
CYP2A6 = target: T2, CYP2A6 (Homo sapiens, UniProt P11509); assay: Inhibition of CYP2A6 (unknown origin); assay type: ADME
T2 sequence (P11509 whole entry): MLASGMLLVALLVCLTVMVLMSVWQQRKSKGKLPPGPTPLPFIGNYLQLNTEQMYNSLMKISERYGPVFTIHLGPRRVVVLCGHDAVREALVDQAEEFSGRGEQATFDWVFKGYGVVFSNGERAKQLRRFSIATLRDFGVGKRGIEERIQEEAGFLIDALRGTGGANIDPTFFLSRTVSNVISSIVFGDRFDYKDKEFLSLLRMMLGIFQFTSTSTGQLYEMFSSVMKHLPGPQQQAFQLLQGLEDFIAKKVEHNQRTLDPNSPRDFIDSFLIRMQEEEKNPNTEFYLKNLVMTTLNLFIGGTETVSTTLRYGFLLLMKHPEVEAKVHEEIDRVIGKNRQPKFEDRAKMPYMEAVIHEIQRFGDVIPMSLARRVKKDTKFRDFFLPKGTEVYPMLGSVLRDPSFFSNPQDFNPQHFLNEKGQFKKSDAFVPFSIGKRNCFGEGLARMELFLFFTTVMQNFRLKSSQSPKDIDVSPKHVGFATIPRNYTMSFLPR

CYP2C8 = target: T3, CYP2C8 (Homo sapiens, UniProt P10632); assay: Inhibition of CYP2C8 (unknown origin); assay type: ADME
T3 sequence (P10632 whole entry): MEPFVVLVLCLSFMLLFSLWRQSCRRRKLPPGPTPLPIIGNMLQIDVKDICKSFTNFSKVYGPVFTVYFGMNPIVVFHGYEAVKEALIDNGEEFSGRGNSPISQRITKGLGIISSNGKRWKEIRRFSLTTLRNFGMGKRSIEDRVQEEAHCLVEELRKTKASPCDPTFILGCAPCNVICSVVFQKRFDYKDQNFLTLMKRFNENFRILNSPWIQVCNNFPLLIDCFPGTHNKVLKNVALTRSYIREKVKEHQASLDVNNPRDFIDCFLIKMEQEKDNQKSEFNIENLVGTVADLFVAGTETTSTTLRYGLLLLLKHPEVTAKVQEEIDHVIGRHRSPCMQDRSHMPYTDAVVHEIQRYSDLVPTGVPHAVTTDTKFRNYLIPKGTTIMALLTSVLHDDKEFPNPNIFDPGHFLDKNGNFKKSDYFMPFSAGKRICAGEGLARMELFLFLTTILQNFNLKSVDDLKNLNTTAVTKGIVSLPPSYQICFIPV

CYP2C19 = CYP2C19 (Homo sapiens, UniProt P33261); assay: Inhibition of CYP2C19 (unknown origin); assay type: ADME
Sequence of CYP2C19 (P33261 whole entry): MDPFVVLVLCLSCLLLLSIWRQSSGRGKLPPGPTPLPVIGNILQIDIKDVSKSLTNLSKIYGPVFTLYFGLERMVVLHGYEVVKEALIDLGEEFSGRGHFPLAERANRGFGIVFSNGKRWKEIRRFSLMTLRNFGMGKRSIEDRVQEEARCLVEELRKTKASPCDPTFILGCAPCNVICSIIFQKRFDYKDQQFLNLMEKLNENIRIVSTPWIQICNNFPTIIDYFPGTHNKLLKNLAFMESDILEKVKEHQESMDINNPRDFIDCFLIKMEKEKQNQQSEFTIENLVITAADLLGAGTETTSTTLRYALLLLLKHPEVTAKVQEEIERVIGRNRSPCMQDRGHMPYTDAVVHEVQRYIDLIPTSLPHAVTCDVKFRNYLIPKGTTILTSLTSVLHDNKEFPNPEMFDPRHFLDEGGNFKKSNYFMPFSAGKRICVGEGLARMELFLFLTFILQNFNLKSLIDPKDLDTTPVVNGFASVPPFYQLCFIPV

CYP2E1 = CYP2E1 (Homo sapiens, UniProt P05181); assay: Inhibition of CYP2E1 (unknown origin); assay type: ADME
Sequence of CYP2E1 (P05181 whole entry): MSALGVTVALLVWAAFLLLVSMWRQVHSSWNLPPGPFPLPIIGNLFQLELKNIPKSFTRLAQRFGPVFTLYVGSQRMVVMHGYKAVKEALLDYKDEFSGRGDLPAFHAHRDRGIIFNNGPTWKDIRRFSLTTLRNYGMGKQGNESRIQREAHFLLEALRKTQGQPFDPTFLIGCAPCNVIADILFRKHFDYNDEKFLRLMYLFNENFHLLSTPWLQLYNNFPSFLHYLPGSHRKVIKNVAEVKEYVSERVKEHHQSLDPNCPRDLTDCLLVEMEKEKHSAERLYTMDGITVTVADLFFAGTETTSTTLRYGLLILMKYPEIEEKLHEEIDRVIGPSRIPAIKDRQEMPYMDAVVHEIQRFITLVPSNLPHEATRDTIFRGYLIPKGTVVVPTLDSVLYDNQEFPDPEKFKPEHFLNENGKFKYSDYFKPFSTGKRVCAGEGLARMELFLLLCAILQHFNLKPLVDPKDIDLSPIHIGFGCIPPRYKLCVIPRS

CYP3A4/5 = CYP3A4/5 (Homo sapiens, UniProt P08684+P20815); assay: Inhibition of CYP3A4/5 (unknown origin); assay type: ADME, protein assay

C[C@@H](N[C@H]1CCN(c2ccc(CC(=O)O)cc2)C1)c1cccc2ccccc12.Cl.Cl
IC50 [1]: 0.0308 µM | IC50 (CYP2D6): > 50 µM | bioavailability [2]: 84.2% | Tmax [3]: 1.38 h | AUC(0-inf) [4]: 1660 ng·h/mL | AUC(0-inf) [5]: 987 ng·h/mL | half-life [6]: 10.2 h | clearance [7]: 5.37 mL/min/kg | Vd [8]: 0.716 L/kg | IC50 (CYP2A6): > 50 µM | IC50 (CYP2C8): > 50 µM | IC50 (CYP2C19): > 50 µM | IC50 (CYP2E1): > 50 µM | IC50 (CYP3A4/5): > 50 µM
